Measurements reported in PubChem BioAssay (NCI).
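Exposure lasted 48 hours, with cells grown in 96-well plates and compounds tested at five concentrations. Abbreviation: GI50, concentration required for 50% inhibition of growth. At the TGI there is no net growth.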

Key:
Test in all cases: NCI anticancer screen, dose series, 48 h
MDA-N = system: MDA-N
T-47D breast = system: T-47D breast
BT-549 breast = system: BT-549 breast
DLD-1 colon = system: DLD-1 colon
SNB-78 CNS = system: SNB-78 CNS
HOP-18 NSCLC = system: HOP-18 NSCLC
DMS 273 small cell lung = system: DMS 273 small cell lung
DMS 114 small cell lung = system: DMS 114 small cell lung
RXF-631 renal = system: RXF-631 renal

## NNC(=O)C(O)C(O)C(O)CO (stereo not drawn)
MDA-N
  TGI: > 100 µM
T-47D breast
  TGI: > 100 µM
BT-549 breast
  TGI: > 100 µM

## N=C(N)c1ccc(CS(=O)(=O)F)cc1
T-47D breast
  GI50: > 100 µM
  TGI: > 100 µM
BT-549 breast
  GI50: > 100 µM
  TGI: > 100 µM

## COc1cccc(-c2cc(C(=O)Nc3ccc(Cl)cc3)nc(N)n2)c1
DLD-1 colon
  TGI: > 100 µM
SNB-78 CNS
  TGI: > 100 µM
HOP-18 NSCLC
  TGI: > 100 µM
DMS 273 small cell lung
  TGI: > 100 µM
DMS 114 small cell lung
  TGI: > 100 µM

## Nc1nc(=O)c2[nH]cnc2n1O
MDA-N
  TGI: > 100 µM
T-47D breast
  TGI: > 100 µM
BT-549 breast
  TGI: > 100 µM

## CN(C)c1ccc(/C=N/NC(=O)CSc2nc3sc4c(c3c(=O)n2-c2ccccc2)CCCCC4)cc1
T-47D breast
  GI50: > 100 µM
  TGI: > 100 µM
BT-549 breast
  GI50: 16.1 µM
  TGI: > 100 µM

## C/C(=N\NC(=O)c1cccc(S(=O)(=O)N2CCN(C)CC2)c1)c1cc(Cl)ccc1O
T-47D breast
  GI50: 0.634 µM
  TGI: > 100 µM
BT-549 breast
  GI50: 1.94 µM
  TGI: 36 µM

## C=C(c1ccc(OC)c(/C=C/C(=O)c2cc(OC)c(OC)c(OC)c2)c1)c1cc(OC)c(OC)c(OC)c1
T-47D breast
  GI50: 1.38 µM
  TGI: 6.12 µM
BT-549 breast
  GI50: 0.894 µM
  TGI: 4.22 µM

## COc1ccc2nc(-c3ccc(Cl)cc3)cc(-c3nnc(SCC(=O)Nc4ccc(/C(C)=N\O)cc4)o3)c2c1
T-47D breast
  GI50: 0.981 µM
  TGI: 3.97 µM
BT-549 breast
  GI50: 3.7 µM
  TGI: 18.9 µM

## OCC(O)C(O)C(O)c1nn[nH]n1 (stereo not drawn)
DLD-1 colon
  TGI: > 100 µM
SNB-78 CNS
  TGI: > 100 µM
DMS 273 small cell lung
  TGI: > 100 µM
DMS 114 small cell lung
  TGI: > 100 µM

## CC/C=C\C[C@H](O)C/C=C1/C(=O)C=C[C@@H]1C/C=C\CCCC(=O)OCCS(=O)(=O)c1ccccc1
T-47D breast
  GI50: 3.76 µM
  TGI: 18.7 µM

## COc1ccccc1CN=C1NC(=O)/C(=C/c2ccc3ncccc3c2)S1
T-47D breast
  GI50: 8.13 µM
  TGI: 24.3 µM
BT-549 breast
  GI50: 5.18 µM
  TGI: 14 µM

## CC(/C=C/C=C\C=C\C=C(/C)C(=O)NC(C)CO)=C\C(C)C(O)/C(C)=C/C(C)CCc1ccccc1 (stereo not drawn)
DLD-1 colon
  TGI: 31.6 µM
SNB-78 CNS
  TGI: 25.2 µM
MDA-N
  TGI: 31.5 µM
HOP-18 NSCLC
  TGI: 24.2 µM
DMS 273 small cell lung
  TGI: 17.1 µM
T-47D breast
  TGI: 46.4 µM
BT-549 breast
  TGI: 33.1 µM
DMS 114 small cell lung
  TGI: 2.47 µM

## CN1C(=O)C(C)(C)NS1(=O)=O
DLD-1 colon
  TGI: > 100 µM
SNB-78 CNS
  TGI: > 100 µM
RXF-631 renal
  TGI: > 100 µM
DMS 273 small cell lung
  TGI: > 100 µM
DMS 114 small cell lung
  TGI: > 100 µM

## Cc1ccc(C(=O)Nc2ccc(CN3CCN(C)CC3)c(C(F)(F)F)c2)cc1C#Cc1cnc(N)c2ccc(C#N)cc12
T-47D breast
  GI50: 3.57 µM
  TGI: > 50 µM
BT-549 breast
  GI50: 10.1 µM
  TGI: > 50 µM

## CCOc1cccc2sc(N)nc12
DLD-1 colon
  TGI: > 100 µM
SNB-78 CNS
  TGI: > 100 µM
HOP-18 NSCLC
  TGI: > 100 µM
DMS 273 small cell lung
  TGI: > 100 µM
DMS 114 small cell lung
  TGI: > 100 µM

## CCOC(=O)NC(=O)c1cn(CC(=O)NCC(=O)NCC(=O)N2CCN(CCn3c(C)nc(C(N)=O)c3N)CC2)c(=O)[nH]c1=O
DLD-1 colon
  TGI: > 100 µM
SNB-78 CNS
  TGI: > 100 µM
RXF-631 renal
  TGI: > 100 µM
HOP-18 NSCLC
  TGI: > 100 µM
DMS 114 small cell lung
  TGI: > 100 µM

## CC1(OCc2ccccc2)C(=O)N2C1N(C(=O)OCc1ccccc1)CC2(C)C (stereo not drawn)
DLD-1 colon
  TGI: > 100 µM
DMS 273 small cell lung
  TGI: > 100 µM
DMS 114 small cell lung
  TGI: > 100 µM

## CN(C(=N)c1ccccc1)c1ccccc1
DLD-1 colon
  TGI: > 100 µM
SNB-78 CNS
  TGI: > 100 µM
HOP-18 NSCLC
  TGI: > 100 µM
DMS 273 small cell lung
  TGI: > 100 µM

## O=C1C2c3[nH]c4ccccc4c3C3CCC(c4ccccc4)CC3C2C(=O)N1c1ccccc1 (stereo not drawn)
DLD-1 colon
  TGI: > 100 µM
SNB-78 CNS
  TGI: > 100 µM
HOP-18 NSCLC
  TGI: > 100 µM
DMS 273 small cell lung
  TGI: > 100 µM
DMS 114 small cell lung
  TGI: > 100 µM

## Clc1cc(Cl)cc(C2SCc3nc4ccccc4n32)c1 (stereo not drawn)
SNB-78 CNS
  TGI: 60.1 µM
RXF-631 renal
  TGI: 32.9 µM
HOP-18 NSCLC
  TGI: 67.8 µM
DMS 273 small cell lung
  TGI: 22.4 µM
DMS 114 small cell lung
  TGI: 44.7 µM

## COc1ccc(/C=C(/C(=O)N2CCN(c3ccc(C)cc3)CC2)c2cc(OC)c(OC)c(OC)c2)cc1N
BT-549 breast
  GI50: 0.199 µM
  TGI: 4.79 µM

## Nc1c(C(=O)c2cccc(C(O)(CO)CO)c2)cnn1-c1ccc(F)cc1
T-47D breast
  GI50: > 25 µM
  TGI: > 25 µM
BT-549 breast
  GI50: > 25 µM
  TGI: > 25 µM

## C/C(=N\N)C(CN1CCCCC1)C(c1ccccc1)c1c(O)c2ccccc2oc1=O (stereo not drawn)
DLD-1 colon
  TGI: > 100 µM
SNB-78 CNS
  TGI: > 100 µM
RXF-631 renal
  TGI: > 100 µM
DMS 273 small cell lung
  TGI: > 100 µM
T-47D breast
  TGI: > 100 µM
BT-549 breast
  TGI: > 100 µM
DMS 114 small cell lung
  TGI: > 100 µM

## O=C1C[C@@H]2[C@@H](C=CC23CC3)N1O
DLD-1 colon
  TGI: > 100 µM
SNB-78 CNS
  TGI: > 100 µM
HOP-18 NSCLC
  TGI: > 100 µM
DMS 273 small cell lung
  TGI: > 100 µM

## COc1cccc(-c2cc(=O)c3cc(C)c(C)c(C(=O)O)c3o2)c1
DLD-1 colon
  TGI: > 100 µM
SNB-78 CNS
  TGI: > 100 µM
RXF-631 renal
  TGI: > 100 µM
DMS 273 small cell lung
  TGI: > 100 µM
DMS 114 small cell lung
  TGI: > 100 µM

## COc1ccc(C(=O)OC2C(OC3C(O)COC(O[C@H]4C[C@H]5[C@@H]6CC=C7C[C@@H](O)CC[C@]7(C)[C@H]6CC[C@]5(C)[C@H]4[C@H](C)C(=O)CCC(C)C)C3OC(=O)C(C)C)OCC(O)C2O)cc1 (stereo partly drawn)
T-47D breast
  GI50: 0.0358 µM
  TGI: 3.08 µM
BT-549 breast
  GI50: < 0.00275 µM
  TGI: 3.26 µM

## COc1ccc(-c2cc(=O)c3c(OC)c(O)c(OC)cc3o2)cc1
MDA-N
  TGI: > 100 µM
T-47D breast
  TGI: > 100 µM
BT-549 breast
  TGI: > 100 µM

## Cc1cc(NCCCNc2ccnc3cc(Cl)ccc23)nc(Nc2ccc(C(=O)N3CCCCC3)cc2)n1
T-47D breast
  GI50: 2.15 µM
  TGI: 6.2 µM
BT-549 breast
  GI50: 2.31 µM
  TGI: 5.43 µM

## COC(=O)CCC(=O)Nc1cccc(C(F)(F)F)c1
DLD-1 colon
  TGI: > 100 µM
SNB-78 CNS
  TGI: > 100 µM
HOP-18 NSCLC
  TGI: > 100 µM
DMS 273 small cell lung
  TGI: > 100 µM
DMS 114 small cell lung
  TGI: > 100 µM

## O=S1(=O)OCc2ccccc21
MDA-N
  TGI: > 100 µM
T-47D breast
  TGI: > 100 µM
BT-549 breast
  TGI: > 100 µM

## COc1cc(-c2nn(-c3ccc(NC(=O)Nc4ccc(Cl)c(C(F)(F)F)c4)cc3)cc2-c2ccncc2)ccc1Cl
T-47D breast
  GI50: 2.66 µM
  TGI: 7.37 µM
BT-549 breast
  GI50: 2.01 µM
  TGI: 4.57 µM

## C=C(C)[C@@H]1CC[C@]2(C(=O)N3CCN(C)CC3)CC[C@]3(C)[C@H](CC[C@@H]4[C@@]5(C)C/C(=C/c6ccncc6)[C@H](O)C(C)(C)[C@@H]5CC[C@]43C)[C@@H]12
T-47D breast
  GI50: 3.02 µM
  TGI: 22.4 µM
BT-549 breast
  GI50: 4.33 µM
  TGI: 24.7 µM

## COc1ccc(C(=C(C#N)C#N)c2ccc(OC)cc2)cc1
SNB-78 CNS
  TGI: > 100 µM
DMS 273 small cell lung
  TGI: > 100 µM
DMS 114 small cell lung
  TGI: > 100 µM

## C=C(c1ccccc1)[C@@]1(O)CCCC[C@H]1NC(c1ccccc1)c1ccccc1
DLD-1 colon
  TGI: 31.9 µM
SNB-78 CNS
  TGI: 50.7 µM
HOP-18 NSCLC
  TGI: 35.4 µM
DMS 273 small cell lung
  TGI: 27.1 µM
DMS 114 small cell lung
  TGI: 22.3 µM

## CCCCCCCCCCCCCCCCCc1cc(Cl)nc(Cl)n1
BT-549 breast
  TGI: > 100 µM
